Test results from patent US20140024663A1, “ATB(0,+) AMINO ACID TRANSPORTER AS A DRUG TARGET FOR TREATMENT OF ESTROGEN RECEPTOR-POSITIVE BREAST CANCER” (GEORGIA HEALTH SCIENCES UNIVERSITY RESEARCH INSTITUTE, INC., priority 2012, published 2014).

Tested on: MB231 cells
Experiment: ASNS and CHOP mRNA by RT-PCR as readout for amino acid deprivation
Assay type: cell-based, human
Conditions: SLC6A14-negative MB231, α-MT 2.5 mM, 24, 48 or 72 h
Method: FIGS. 6A to 6C. Effects of SLC6A14 blockade with α-MT in breast cancer cells. In FIG. 6A, MCF10A (a non-malignant mammary epithelial cell line), MCF7 (an ER-positive breast cancer cell line), and MB231 (an ER-negative breast cancer cell line) cells were treated with or without 2.5 mM α-MT for 24, 48, or 72 h and then used for analysis of asparagine synthetase (ASNS) and CHOP mRNA levels. In FIG. 6B, MCF7, MB231 and MCF10A cells were treated with or without 2.5 mM α-MT for 48 h and then used for immunocytochemical analysis of the constitutively expressed LC-3. In FIG. 6C, MCF7 cells were treated with (“b” and “c”) or without (“a”) α-MT (2.5 mM) for 48 h and then used for electron microscopy. Arrows indicate sequestration of cytoplasm and organelles in pre-autophagosomes and autophagosome, and the asterisk indicates condensed chromatin. N, nucleus.
RT-PCR. Total RNA was isolated using TRIZOL™ (Invitrogen). 2 μg of RNA was reverse transcribed using the GeneAmp PCR System (Applied Biosystems, Branchburg, N.J.). PCR reaction was performed under optimal conditions specific for each of the primer pairs. GAPDH (glyceraldehyde-3-phosphate dehydrogenase) or HPRT1 (hypoxanthine/guanine phosphoribosyl transferase-1) were used as internal controls. PCR products were size-fractionated on agarose gel, stained with ethidium bromide and imaged using Alpha Imager (Santa Clara, Calif.). […]

With `CC(N)(Cc1c[nH]c2ccccc12)C(=O)O` (racemic) [α-MT, α-methyl-DL-tryptophan] the “levels of asparagine synthetase mRNA and CHOP mRNA” value was “not”.
